# Measured values as given in patent US9226916B2, “Pyrrolidine derivatives” (HOFFMANN-LA ROCHE INC., priority 2009, dated 2016).
# Target: T1, recombinant human NK3 receptor (Homo sapiens, UniProt P29371)
# T1 construct: expressed in transfected cells; host or cells: HEK293 cells, transient expression; membranes
# T1 sequence (P29371 1-465): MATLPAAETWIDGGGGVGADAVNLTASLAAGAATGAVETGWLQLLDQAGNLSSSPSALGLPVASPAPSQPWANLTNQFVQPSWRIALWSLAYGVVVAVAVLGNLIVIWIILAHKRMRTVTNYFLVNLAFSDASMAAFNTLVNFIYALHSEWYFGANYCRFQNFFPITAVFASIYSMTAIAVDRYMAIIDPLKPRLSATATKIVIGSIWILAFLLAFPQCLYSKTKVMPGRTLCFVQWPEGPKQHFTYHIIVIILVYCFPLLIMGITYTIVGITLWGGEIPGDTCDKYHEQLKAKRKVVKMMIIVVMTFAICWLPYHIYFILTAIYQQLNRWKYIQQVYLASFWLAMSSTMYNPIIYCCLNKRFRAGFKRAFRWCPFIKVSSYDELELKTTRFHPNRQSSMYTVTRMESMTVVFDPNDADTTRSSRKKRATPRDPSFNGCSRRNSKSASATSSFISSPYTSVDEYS
# Assay: [3H]SR142801 competition binding assay
# Conditions: not given
row,SMILES,Ki
1,"CN(C(=O)Oc1ccc(F)cc1)[C@@H]1CN(C(=O)C2CCN(C(=O)C3(C(F)(F)F)CC3)CC2)C[C@H]1c1ccc(Cl)c(Cl)c1 [Example 273, {(3S,4R)-4-(3,4-Dichloro-phenyl)-1-[1-(1-trifluoromethyl-cyclopropanecarbonyl)-piperidine-4-carbonyl]-pyrrolidin-3-yl}-methyl-carbamic acid 4-fluoro-phenyl ester]",0.4 nM
2,"CN(C(=O)Oc1ccc(F)cc1)[C@H]1CN(C(=O)CCN2CCCC2=O)C[C@@H]1c1ccc(Cl)c(Cl)c1 (racemic) [Example 56, rac-{(3R,4S)-4-(3,4-Dichloro-phenyl)-1-[3-(2-oxo-pyrrolidin-1-yl)-propionyl]-pyrrolidin-3-yl}-methyl-carbamic acid 4-fluoro-phenyl ester]",61.3 nM
3,"CN(C(=O)Oc1ccc(F)cc1)[C@@H]1CN(C(=O)C2CCN(c3ccc(C#N)cn3)CC2)C[C@H]1c1ccc(Cl)cc1 [Example 94, [(3S,4R)-4-(4-Chloro-phenyl)-1-(5′-cyano-3,4,5,6-tetrahydro-2H-[1,2′]bipyridinyl-4-carbonyl)-pyrrolidin-3-yl]-methyl-carbamic acid 4-fluoro-phenyl ester]",0.2 nM
4,"CN(C(=O)Oc1ccc(F)cc1)[C@@H]1CN(C(=O)C2CCN(c3ccc(F)cn3)CC2)C[C@H]1c1ccc(F)c(Cl)c1 [Example 315, [(3S,4R)-4-(3-Chloro-4-fluoro-phenyl)-1-(5′-fluoro-3,4,5,6-tetrahydro-2H-[1,2′]bipyridinyl-4-carbonyl)-pyrrolidin-3-yl]-methyl-carbamic acid 4-fluoro-phenyl ester]",1.7 nM
5,"CN(C(=O)Oc1ccc(F)cc1)[C@@H]1CN(C(=O)C2CCN(C(=O)C3CCOC(C)(C)C3)CC2)C[C@H]1c1ccc(Cl)cc1 (stereo partly drawn) [Example 258, {(3S,4R)-4-(4-Chloro-phenyl)-1-[1-(2,2-dimethyl-tetrahydro-pyran-4-carbonyl)-piperidine-4-carbonyl]-pyrrolidin-3-yl}-methyl-carbamic acid 4-fluoro-phenyl ester]",2.9 nM
6,"CN(C(=O)Oc1ccc(F)cc1)[C@@H]1CN(C(=O)C2CCN(c3ccncn3)CC2)C[C@H]1c1ccc(Cl)cc1 [Example 191, [(3S,4R)-4-(4-Chloro-phenyl)-1-(1-pyrimidin-4-yl-piperidine-4-carbonyl)-pyrrolidin-3-yl]-methyl-carbamic acid 4-fluoro-phenyl ester]",1.2 nM
7,"CN(C(=O)Oc1ccc(F)cc1)[C@@H]1CN(C(=O)C2CCN(C(=O)C3CCC(=O)NC3)CC2)C[C@H]1c1ccc(Cl)cc1 (stereo partly drawn) [Example 263, {(3S,4R)-4-(4-Chloro-phenyl)-1-[1-(6-oxo-piperidine-3-carbonyl)-piperidine-4-carbonyl]-pyrrolidin-3-yl}-methyl-carbamic acid 4-fluoro-phenyl ester]",15.1 nM
8,"CN(C(=O)Oc1ccc(F)cc1)[C@H]1CN(C(=O)[C@H]2CC[C@](C)(O)CC2)C[C@@H]1c1ccc(Cl)c(Cl)c1 (racemic) [Example 52, rac-[(3R,4S)-4-(3,4-Dichloro-phenyl)-1-(trans-4-hydroxy-4-methyl-cyclohexanecarbonyl)-pyrrolidin-3-yl]-methyl-carbamic acid 4-fluoro-phenyl ester]",8.1 nM
9,"CC(OC(=O)N(C)[C@@H]1CN(C(=O)C2CCN(c3ccc(C#N)cn3)CC2)C[C@H]1c1ccc(Cl)cc1)c1ccc(F)cc1 (stereo partly drawn) [Example 226, [(3S,4R)-4-(4-Chloro-phenyl)-1-(5′-cyano-3,4,5,6-tetrahydro-2H-[1,2′]bipyridinyl-4-carbonyl)-pyrrolidin-3-yl]-methyl-carbamic acid 1-(4-fluoro-phenyl)-ethyl ester]",79.2 nM
10,"Cc1ccc(OC(=O)N(C)[C@H]2CN(C(=O)C3CCN(CC4CC4)CC3)C[C@@H]2c2ccc(Cl)c(Cl)c2)cc1 (racemic) [Example 8, rac-[(3R,4S)-1-(1-Cyclopropylmethyl-piperidine-4-carbonyl)-4-(3,4-dichloro-phenyl)-pyrrolidin-3-yl]-methyl-carbamic acid p-tolyl ester]",4 nM
11,"CN(C(=O)Oc1ccc(F)cc1)[C@@H]1CN(C(=O)C2CCN(c3ccc(C(F)(F)F)cn3)CC2)C[C@H]1c1ccc(F)c(Cl)c1 [Example 317, [(3S,4R)-4-(3-Chloro-4-fluoro-phenyl)-1-(5′-trifluoromethyl-3,4,5,6-tetrahydro-2H-[1,2′]bipyridinyl-4-carbonyl)-pyrrolidin-3-yl]-methyl-carbamic acid 4-fluoro-phenyl ester]",1.6 nM
12,"CN(C(=O)O[C@H]1CC[C@H](C(F)(F)F)CC1)[C@@H]1CN(C(=O)C2CCOCC2)C[C@H]1c1ccc(Cl)c(Cl)c1 [Example 161, [(3S,4R)-4-(3,4-Dichloro-phenyl)-1-(tetrahydro-pyran-4-carbonyl)-pyrrolidin-3-yl]-methyl-carbamic acid 4-trifluoromethyl-cyclohexyl ester]",7.4 nM
13,"CN(C(=O)Oc1ccc(F)cc1)[C@@H]1CN(C(=O)C2CCN(C(=O)C3(C(F)(F)F)CCC3)CC2)C[C@H]1c1ccc(Cl)cc1 [Example 252, {(3S,4R)-4-(4-Chloro-phenyl)-1-[1-(1-trifluoromethyl-cyclobutanecarbonyl)-piperidine-4-carbonyl]-pyrrolidin-3-yl}-methyl-carbamic acid 4-fluoro-phenyl ester]",2.7 nM
14,"CO[C@H]1CC[C@@H](C(=O)N2C[C@H](c3ccc(Cl)c(Cl)c3)[C@@H](N(C)C(=O)Oc3ccc(F)cc3)C2)CC1 (racemic) [Example 49, rac-[(3R,4S)-4-(3,4-Dichloro-phenyl)-1-(cis-4-methoxy-cyclohexanecarbonyl)-pyrrolidin-3-yl]-methyl-carbamic acid 4-fluoro-phenyl ester]",3.5 nM
15,"COc1ccc(OC(=O)N(C)[C@@H]2CN(C(=O)C3CCN(CC4CC4)CC3)C[C@H]2c2ccc(Cl)c(Cl)c2)cc1 [Example 21, [(3S,4R)-1-(1-Cyclopropylmethyl-piperidine-4-carbonyl)-4-(3,4-dichloro-phenyl)-pyrrolidin-3-yl]-methyl-carbamic acid 4-methoxy-phenyl ester]",10.4 nM
16,"CN(C(=O)Oc1ccc(F)cc1)[C@@H]1CN(C(=O)C2CCN(C(=O)C3(C(F)(F)F)CCC3)CC2)C[C@H]1c1ccc(F)cc1 [Example 289, {(3S,4R)-4-(4-Fluoro-phenyl)-1-[1-(1-trifluoromethyl-cyclobutanecarbonyl)-piperidine-4-carbonyl]-pyrrolidin-3-yl}-methyl-carbamic acid 4-fluoro-phenyl ester]",11 nM
17,"CN(C(=O)Oc1ccc(F)cc1)[C@@H]1CN(C(=O)C2CCN(c3ccc(C(N)=O)cn3)CC2)C[C@H]1c1ccc(Cl)c(Cl)c1 [Example 310, [(3S,4R)-1-(5′-Carbamoyl-3,4,5,6-tetrahydro-2H-[1,2′]bipyridinyl-4-carbonyl)-4-(3,4-dichloro-phenyl)-pyrrolidin-3-yl]-methyl-carbamic acid 4-fluoro-phenyl ester]",0.6 nM
18,"CN(C(=O)Oc1ccc(F)cc1)[C@@H]1CN(C(=O)C2CCN(C3CCOCC3)C2)C[C@H]1c1ccc(Cl)cc1 (stereo partly drawn) [Example 179, {(3S,4R)-4-(4-Chloro-phenyl)-1-[1-(tetrahydro-pyran-4-yl)-pyrrolidine-3-carbonyl]-pyrrolidin-3-yl}-methyl-carbamic acid 4-fluoro-phenyl ester]",56.6 nM

# Same assay, conditions: hNK-3 receptor affinity; membranes from HEK293 cells transiently expressing recombinant human NK3 receptor; [3H]SR142801; Cheng-Prussoff; read-out: Data Ki
row,Ki,SMILES
1,33 nM,"CN(C(=O)OCCC1CC1)[C@@H]1CN(C(=O)C2CCN(C(=O)C3(C)CC3)CC2)C[C@H]1c1ccc(Cl)c(Cl)c1 [Example 36, {(3S,4R)-4-(3,4-Dichloro-phenyl)-1-[1-(1-methyl-cyclopropanecarbonyl)-piperidine-4-arbonyl]-pyrrolidin-3-yl}-methyl-carbamic acid 2-cyclopropyl-ethyl ester]"
2,0.4 nM,"CN(C(=O)O[C@H]1CC[C@H](C(F)(F)F)CC1)[C@@H]1CN(C(=O)C2CCN(c3ccc(C#N)cn3)CC2)C[C@H]1c1ccc(Cl)c(Cl)c1 [Example 159, [(3S,4R)-1-(5′-Cyano-3,4,5,6-tetrahydro-2H-[1,2′]bipyridinyl-4-carbonyl)-4-(3,4-dichloro-phenyl)-pyrrolidin-3-yl]-methyl-carbamic acid 4-trifluoromethyl-cyclohexyl ester]"
3,19.5 nM,"CN(C(=O)OCC1(C)COC1)[C@@H]1CN(C(=O)C2CCN(c3ccc(C#N)cn3)CC2)C[C@H]1c1ccc(Cl)cc1 [Example 218, [(3S,4R)-4-(4-Chloro-phenyl)-1-(5′-cyano-3,4,5,6-tetrahydro-2H-[1,2′]bipyridinyl-4-carbonyl)-pyrrolidin-3-yl]-methyl-carbamic acid 3-methyl-oxetan-3-ylmethyl ester]"
4,1.8 nM,"CN(C(=O)OC1CCC(C(F)(F)F)CC1)[C@H]1CN(C(=O)C2CCN(C(=O)C3(C)CC3)CC2)C[C@@H]1c1ccc(Cl)c(Cl)c1 (mixture of isomers) [Example 103, rac-{(3R,4S)-4-(3,4-Dichloro-phenyl)-1-[1-(1-methyl-cyclopropanecarbonyl)-piperidine-4-carbonyl]-pyrrolidin-3-yl}-methyl-carbamic acid 4-trifluoromethyl-cyclohexyl ester]"
5,7.7 nM,"CN(C(=O)OCC1(C)CC1)[C@@H]1CN(C(=O)C2CCN(c3ccc(C#N)cn3)CC2)C[C@H]1c1ccc(Cl)cc1 [Example 217, [(3S,4R)-4-(4-Chloro-phenyl)-1-(5′-cyano-3,4,5,6-tetrahydro-2H-[1,2′]bipyridinyl-4-carbonyl)-pyrrolidin-3-yl]-methyl-carbamic acid 1-methyl-cyclopropylmethyl ester]"
